The results in this text go back to US9757408B2 (Hayashibara Co., Ltd., priority 2010, dated 2017).

Converted amounts (≈) assume the structure as drawn. Marks after values point to notes of the source that are not given here. Bounds are passed on as bounds.

For data set [1], the system named is skin of volunteers irradiated with ultraviolet rays. The experiment in a line: Volunteer test of creams: pigmentation (visual score, melanin index) after ultraviolet rays. The settings on record: cream thrice a day for 28 days. The data set is classed as in vivo, human. The procedure:
Melanin index was measured on “CM-700d”, a spectrophotometer commercialized by Konica Minolta Holdings, Inc., Tokyo, Japan.
In was confirmed that there were no spots and wounds in the inside of the left upper arm in each volunteer. On the day of initiating the test, four sites in the test part of each volunteer were irradiated with 1.5-times of the minimum erythemogenic dose of ultraviolet rays (UVB). The area of the irradiated site was in the range of 1×1 cm applied with each test sample. […]
From the day of initiating the irradiation of ultraviolet rays until seven days after the initiation, the test parts were visually observed and photographed by a digital camera every day, and the day, on which the erythema in the part irradiated with ultraviolet rays become unobserved, was confirmed and the days until the unobserved day for each creams were averaged and shown in Table 26. At 24 hours after the irradiation of ultraviolet rays, the degree of erythema in the part applied with each cream was scored based on the three grades of “strong (2)”, “no difference (0)”, and “weak (−2)” compared to the part applied with Cream 3, summed up the scores for each cream, and averaged. […] On 28 days after initiating the irradiation of ultraviolet rays, visual judgement on the part irradiated with ultraviolet rays and the melanin index were measured to confirm the degree of pigmentation. […]

A further data set can be described thus: physchem. Particulars: aqueous buffer.
The test system of a further data set is NHDF cells. The experiment in a line: Cell survival rate of NHDF cells after hydrogen peroxide oxidant stress (Experiment 18). The data set is classed as cell-based, human. As for the experimental part:
To the wells, which had not been treated with hydrogen peroxide, was added 100 μL/well of Hanks' solution. […] Thereafter, the supernatant in each well was removed by sucking, and “CELL COUNTING KIT-8”, a product name of a reagent solution for counting viable cells, commercialized by Dojindo Molecular Technologies, Inc., Kumamoto, Japan, which had been diluted with D-MEM medium supplemented with 10% FCS by 20-times, was added to the wells in an amount of 100 μL/well, followed by incubating the cells in a 5% v/v CO2 incubator at 37° C. for two hours. Finally, the microplates were measured for absorbance at a wavelength of 450 nm on a plate reader. For each well, a relative absorption value was determined when the absorbance of a well of NHDF cells, which had been cultured by the addition of only medium, was regarded as 100, and it is expressed as a cell survival rate (%) in Table 21.

Data set [2] deals with TNF-α in serum of mice administered with LPS. Briefly: Serum TNF-α in LPS-administered mice, ANO i.v. (Experiment 7). The data set is classed as in vivo, BALB/c mice. The settings on record: LPS 18 mg/kg i.p., serum two hours after LPS. As for the experimental part:
More specifically, 18 BALB/c female mice, 9-week-old, commercialized by Japan Charles River, Tokyo, Japan, were randomly divided into three groups, six heads each. An LPS specimen derived from E. coli (055:B5), commercialized by Sigma-Aldrich Corporation, St. Louis, Mo. USA, was dissolved in physiological saline and intraperitoneally administered to all the 6 mice in respective three groups at a dose of 18 mg/kg body weight of LPS (Experiment groups 1 to 3). […] To the six mice of the remaining one group was intravenously administered PBS in a liquid volume of 0.2 mL/head simultaneously with the administration of LPS (Experiment group 1).
For the mice in each group, they were collected blood at two hours after the LPS administration, followed by assaying the level of TNF-α, IL-6, IL-10, and IL-12 in each serum and averaging the data for each group. For the assay of the level of TNF-α, the same ELISA as in Experiment 2 was used and for the assay of the level of IL-6, the same ELISA as in Experiment 3 was used. […]

The next data set deals with BALB/c mice. Briefly: Acute toxicity test, intraperitoneal (Experiment 20). The settings on record: mouse, in vivo, ip. As for the experimental part: As a control, only PBS was intraperitoneally administered to 10 BALB/c mice (6-week-old, female, average weight of 20 g, commercialized by Charles River Laboratories Japan Inc., Tokyo, Japan) at a dose of 1 mL/head, followed by observing the course of the mice for 24 hours.

The solubility is how much of the substance goes into solution per volume. A high value points to much dissolved substance. Turning to `Nc1c2ncn([C@@H]3O[C@H](CO)[C@@H](O)[C@H]3O)c2nc[n+]1[O-]` [ANO, adenosine N1-oxide], the “safeness when applied to the skin (red flare, eczema)” value in data set [1] was “induced no red flare, eczema, etc”. The solubility in the data set “physchem” was around 20 mg/mL (≈ 70.6 mM). Also, the Cell survival rate was 100% with NHDF cells (addition of hydrogen peroxide: No, 3.12 μM); 100% with NHDF cells (addition of hydrogen peroxide: No, 6.25 μM); 100% in the data set with NHDF cells (addition of hydrogen peroxide: No, 12.5 μM); 100% in the data set with NHDF cells (addition of hydrogen peroxide: No, 25.0 μM); 35% with NHDF cells (addition of hydrogen peroxide: Yes, 3.1 μM); 81% in the data set on NHDF cells (addition of hydrogen peroxide: Yes, 6.3 μM). Besides, the Cell survival rate with NHDF cells (addition of hydrogen peroxide: Yes, 12.5 μM) was found to be 83%; in the data set with NHDF cells (addition of hydrogen peroxide: Yes, 25.0 μM), 89%; in the data set with NHDF cells (hydrogen peroxide 200 μM, then ANO 25 μM for 24 hours, medium only = 100) it was 89%. Besides, the “influence on the cell survival rate without hydrogen peroxide” value in the data set with NHDF cells (concentrations used in this experiment (Experiment groups 7 to 10)) is “No influence”. Besides, the “TNF-α Concentration” value in data set [2] (ANO 68 mg/kg i.v.) is on record as 109** pg/mL; in data set [2] (ANO 135 mg/kg i.v.), 46** pg/mL. Besides, the LD50 in the data set with BALB/c mice is on record as ≥ 1,000 mg/kg body weight. Also, the “change in appearance after administration” value in the data set on BALB/c mice is on record as “no change in appearance”.
